The values that follow come from patent publication US4292305A, “Antiallergic imidodisulfamides” (SmithKline Corporation, priority 1980, dated 1981).

Structures are written as SMILES.

The assay concerns slow reacting substance of anaphylaxis (SRS-A). In words: Inhibition of SRS-A induced contraction of guinea pig ileum. The assay is classed as cell-based. The following applies: Cavia porcellus, 0.25 h, partially purified SRS-A from guinea pig lung at 40 μg/ml, isolated guinea pig ileum, read-out: antagonism of SRS-A. On the procedure: The SRS-A antagonist activity of the compounds of this invention is measured by the ability of the active medicament to inhibit SRS-A induced contraction of guinea pig ileum. In this test system, sections of ileum are resected from guinea pigs and placed in 5 ml. tissue baths containing a modified Tyrode's solution. One end of the tissue is fixed to a glass tissue holder, the other is connected to a force-displacement transducer and the tissue is placed under a tension of 500 mg. Isometric tissue contractions are recorded on a six channel polygraph. Baths are constantly aerated with 95% O2 -5% CO2. After a 20 minute stabilization period a concentration of the appropriate agonist which provides a contraction height of 60-80% of the maximum obtainable to that agonist (as determined from full sequential concentration--response curves in separate experiments) is added to the tissue bath and the response recorded. The procedure is repeated until reproducible responses are obtained. […] Percent inhibition produced by the test compound is calculated by substracting the mean percentage change in control tissue from the mean percentage change in tissues exposed to the test compound. Additional compounds are then evaluated as long as the tissue remains reproducibly responsive to the agonist. […]

As for `O=S(=O)(Nc1ccc(Br)cc1)NS(=O)(=O)Nc1ccc(Br)cc1` [1,5-di-(4-bromophenyl)-imidodisulfamide], where the note is “test compound 5×10^-5 M”, the inhibition at 50 µM was found to be 47%.
`O=S(=O)(NCCCCc1ccccc1)NS(=O)(=O)NCCCCc1ccccc1` [1,5-di-(4-phenylbutyl)-imidodisulfamide]: the inhibition at 10 µM (test compound 1×10^-5 M) was determined as 40%.
